The source made the active and inactive calls. The rule behind the calls is not given here.
Tests used:
B16-F10 = experiment: Antitumor activity against mouse B16-F10 cells implanted in C57BL/6 mouse assessed as tumor growth inhibition at 20 mg/kg, po administered once daily and measured twice a week relative to control; format: functional; settings: read-out: TGI
MCF7 = experiment: cells; settings: Homo sapiens, MCF7, 72 h
Description: Antiproliferative activity against human MCF7 cells assessed as inhibition of cell growth incubated for 72 hrs by MTT assay

A549 = experiment: cells; settings: Homo sapiens, A549, 72 h
[1] = Stability in dog liver microsomes assessed as half life incubated in presence of NADPH by LC-MS/MS analysis; format: ADME, Canis lupus familiaris, Microsome
NCI-H460 = experiment: cells; settings: Homo sapiens, NCI-H460, 72 h
Description: Antiproliferative activity against human NCI-H460 cells assessed as inhibition of cell growth incubated for 72 hrs by MTT assay

DU-145 [2] = experiment: Induction of apoptosis in human DU-145 cells assessed as live cells at 0.3 uM incubated for 48 hrs by Annexin V-FITC/PI staining based flow cytometry analysis (reference value: 94.94%); format: functional
BGC-823 = experiment: Antiproliferative activity against human BGC-823 cells assessed as inhibition of cell growth incubated for 72 hrs by MTT assay; format: functional, cell-based; settings: BGC-823, 72 h
DU-145 [3] = experiment: Induction of apoptosis in human DU-145 cells assessed as early apoptotic cells at 0.3 uM incubated for 48 hrs by Annexin V-FITC/PI staining based flow cytometry analysis (reference value: 1.97%); format: functional
DU-145 [4] = experiment: Induction of apoptosis in human DU-145 cells assessed as early apoptotic cells at 0.03 uM incubated for 48 hrs by Annexin V-FITC/PI staining based flow cytometry analysis (reference value: 1.97%); format: functional
DU-145 [5] = experiment: Induction of apoptosis in human DU-145 cells assessed as dead cells at 0.1 uM incubated for 48 hrs by Annexin V-FITC/PI staining based flow cytometry analysis (reference value: 1.05%); format: functional
[6] = Mutagenicity in Salmonella typhimurium TA-98 at 0.5 to 500 ug per plate incubated for 72 hrs in presence or absence of S9 fraction by Ames test; format: toxicity, Salmonella enterica subsp. enterica serovar Typhimurium; settings: in vivo, dose 0.5-500 µg
DU-145 [7] = experiment: Induction of apoptosis in human DU-145 cells assessed as dead cells at 0.03 uM incubated for 48 hrs by Annexin V-FITC/PI staining based flow cytometry analysis (reference value: 1.05%); format: functional
DU-145 [8] = experiment: Antitumor activity against human DU-145 cells xenografted in BALB/c nude mouse assessed as tumor growth inhibition at 5 mg/kg, po administered once daily and measured twice a week relative to control; format: functional; settings: read-out: TGI
[9] = Toxicity in C57BL/6 mouse implanted with mouse B16-F10 cells assessed as […] at 20 mg/kg, po administered once daily and measured twice a week for 14 days; format: organism-based; settings: in vivo, 336 h, time 14 day
DU-145 [10] = experiment: Antiproliferative activity against human DU-145 cells assessed as inhibition of cell growth incubated for 72 hrs by real-time cell analysis; format: functional, cell-based; settings: DU-145, 72 h
[11] = Clearance in Kunming mouse at 2 mg/kg, iv by LC-MS/MS analysis; format: ADME, organism-based; settings: in vivo
[12] = AUC (0 to t) in Kunming mouse at 20 mg/kg, po by LC-MS/MS analysis; format: ADME, organism-based; set-up: dose 20 mg/kg, route po; settings: in vivo
[13] = Stability in rat liver microsomes assessed as half life incubated in presence of NADPH by LC-MS/MS analysis; format: ADME, Microsome
[14] = Toxicity in BALB/c nude mouse xenografted with human DU-145 cells assessed as reduction in body weight at 10 mg/kg, po administered once daily and measured twice a week; format: organism-based; set-up: scale not given: the % may be the effect or the level left; settings: in vivo
[15] = Mutagenicity in Salmonella typhimurium TA-97 at 0.5 to 500 ug per plate incubated for 72 hrs in presence or absence of S9 fraction by Ames test; format: toxicity, Salmonella enterica subsp. enterica serovar Typhimurium; settings: in vivo, dose 0.5-500 µg
DU-145 [16] = experiment: Antiproliferative activity against human DU-145 cells assessed as inhibition of cell growth incubated for 72 hrs by MTT assay; format: functional, cell-based; settings: DU-145, 72 h
HCT-116 = experiment: cells; settings: Homo sapiens, HCT-116, 72 h
Description: Antiproliferative activity against human HCT-116 cells assessed as inhibition of cell growth incubated for 72 hrs by MTT assay

[17] = AUC (0 to t) in Kunming mouse at 2 mg/kg, iv by LC-MS/MS analysis; format: ADME, organism-based; set-up: dose 2 mg/kg, route iv; settings: in vivo
DU-145 [18] = experiment: Induction of G2/M phase cell cycle arrest in human DU-145 cells assessed as decrease in Cdc2 phosphorylation at T14/Y15 residue at 0.03 to 0.3 uM measured after 12 hrs by Western blot analysis; format: functional, cell-based; settings: dose 0.03-0.3 µM
[19] = Oral bioavailability in Kunming mouse at 20 mg/kg by LC-MS/MS analysis; format: ADME, organism-based; settings: in vivo
NCI-H1299 [20] = experiment: Antitumor activity against human NCI-H1299 cells xenografted in BALB/c nude mouse assessed as suppression of tumor growth at 20 mg/kg, po administered once daily and measured twice a week relative to control; format: functional
[21] = Selectivity index, ratio of IC50 for cytotoxicity against African green monkey Vero cells to IC50 for antiproliferative activity against human DU-145 cells; format: toxicity, cell-based; settings: Vero cells and DU-145 cells, read-out: Ratio IC50
[22] = Toxicity in BALB/c nude mouse xenografted with human DU-145 cells assessed as reduction in body weight at 5 mg/kg, po administered once daily and measured twice a week; format: organism-based; settings: in vivo
[23] = Half life in Kunming mouse at 2 mg/kg, iv by LC-MS/MS analysis; format: ADME, organism-based; settings: in vivo
DU-145 [24] = experiment: Induction of G2/M phase cell cycle arrest in human DU-145 cells assessed as increase in cyclin B1 expression at 0.03 to 0.3 uM measured after 12 hrs by Western blot analysis; format: functional, cell-based; settings: dose 0.03-0.3 µM
[25] = Toxicity in po dosed ICR mouse assessed as maximum tolerated dose measured on day 14; format: organism-based; settings: in vivo, time 14 day
DU-145 [26] = experiment: Induction of apoptosis in human DU-145 cells assessed as live cells at 0.1 uM incubated for 48 hrs by Annexin V-FITC/PI staining based flow cytometry analysis (reference value: 94.94%); format: functional
NCI-H1299 [27] = experiment: Antiproliferative activity against human NCI-H1299 cells assessed as inhibition of cell growth incubated for 72 hrs by MTT assay; format: functional, cell-based; settings: NCI-H1299, 72 h
[28] = Stability in human liver microsomes assessed as half life incubated in presence of NADPH by LC-MS/MS analysis; format: ADME, Microsome
MCF7R = experiment: Antiproliferative activity against paclitaxel-resistant human MCF7R cells assessed as inhibition of cell growth incubated for 72 hrs by MTT assay; format: functional, cell-based; settings: read-out: IC50
DU-145 [29] = experiment: Induction of apoptosis in human DU-145 cells assessed as late apoptotic cells at 0.1 uM incubated for 48 hrs by Annexin V-FITC/PI staining based flow cytometry analysis (reference value: 2.05%); format: functional
[30] = Toxicity in BALB/c nude mouse xenografted with human NCI-H1299 cells assessed as reduction in body weight at 10 to 20 mg/kg, po administered once daily and measured twice a week; format: organism-based; settings: in vivo, dose 10-20 mg/kg
[31] = Cytotoxicity against African green monkey Vero cells assessed as reduction in cell viability measured after 48 hrs; format: toxicity, cell-based, Chlorocebus sabaeus
HCT-8 = experiment: Antiproliferative activity against human HCT-8 cells assessed as inhibition of cell growth incubated for 72 hrs by MTT assay; format: functional, cell-based; settings: HCT-8, 72 h

Cc1ccc(S(=O)(=O)Nc2cc(C(=O)NCc3ccc(C)nc3)ccc2C)cc1 gave an inhibition in vivo at 20 mg/kg (B16-F10) of 70.6%, an IC50 (MCF7) of 0.006 µM and an IC50 (A549) of 0.025 µM. It also gave a half-life [1] of 132 min, an IC50 (NCI-H460) of 0.077 µM and an Activity (DU-145 [2]) of 37.88%. The IC50 (BGC-823) was 0.021 µM, the Activity (DU-145 [3]) was 26.3% and the Activity (DU-145 [4]) was 13.66%. The Activity (DU-145 [5]) was 5.08%, the Activity [6] was “Non-Toxic” and the Activity (DU-145 [7]) was 2.95%. For the same molecule, the inhibition in vivo at 5 mg/kg (DU-145 [8]) was 37.4%, the Activity [9] was “Toxic” and the IC50 (DU-145 [10]) was 0.009 µM. For the same molecule, the clearance [11] was 3.69 L/h/kg, the AUC(0-t) [12] was 2.58 µg·h/mL and the half-life [13] was 2.3 min. The Activity [14] was 3.5%, the Activity [15] was “Non-Toxic” and the IC50 (DU-145 [16]) was 0.008 µM. The IC50 (HCT-116) was 0.004 µM, the AUC(0-t) [17] was 0.534 µg·h/mL and the Activity (DU-145 [18]) was “Active”. For the same molecule, the bioavailability [19] was 48.2%, the Activity (NCI-H1299 [20]) was 73.6% and the selectivity ratio [21] was 4. The Activity [22] was “Non-Toxic”, the half-life [23] was 10.8 min and the Activity (DU-145 [24]) was “Active”. The MTD at 336 h [25] was greater than 60 mg/kg, the Activity (DU-145 [26]) was 43.52% and the IC50 (NCI-H1299 [27]) was 0.004 µM. For the same molecule, the half-life [28] was 24 min, the IC50 (MCF7R) was 0.014 µM and the Activity (DU-145 [29]) was 26.61%. For the same molecule, the Activity [30] was “Toxic”, the IC50 at 48 h [31] was 0.04 µM and the IC50 (HCT-8) was 0.022 µM.

— ChEMBL document CHEMBL5150075 (J Med Chem, 2022)
